Reference: ChEMBL document CHEMBL3870343, “Synthesis, screening and docking analysis of hispolon analogs as potential antitubercular agents” (2017)
Values after ≈ are worked out from the molar mass of the structure shown.

Legend:
Assay type in all cases: functional
[1] = tested on: Mycobacterium tuberculosis; assay: Antitubercular activity against Mycobacterium tuberculosis H37Rv ATCC 27294 after 5 days by micro plate alamar blue assay; settings: H37Rv ATCC 27294, 120 h
[2] = tested on: Mycobacterium tuberculosis; assay: Antitubercular activity against Mycobacterium tuberculosis H37Rv ATCC 27294 assessed as ratio of compound or streptomycin MIC to MIC for compound in presence of streptomycin after 5 days by micro plate alamar blue assay
[3] = tested on: Mycobacterium tuberculosis; assay: Antitubercular activity against Mycobacterium tuberculosis H37Rv ATCC 27294 assessed as ratio of compound or pyrazinamide MIC to MIC for compound in presence of pyrazinamide after 5 days by micro plate alamar blue assay
[4] = tested on: Mycobacterium tuberculosis; assay: Antitubercular activity against Mycobacterium tuberculosis H37Rv ATCC 27294 assessed as ratio of compound or ciprofloxacin MIC to MIC for compound in presence of ciprofloxacin after 5 days by micro plate alamar blue assay
[5] = tested on: Mycobacterium tuberculosis; assay: Antitubercular activity against Mycobacterium tuberculosis H37Rv ATCC 27294 assessed as ratio of compound or rifampicin MIC to MIC for compound in presence of rifampicin after 5 days by micro plate alamar blue assay

| SMILES | MIC [1] [µg/mL] | also measured |
| --- | --- | --- |
| COc1cc(/C=C/C(=O)CC(C)=O)cc(OC)c1OC(C)=O | > 100 | – |
| CC(=O)CC(=O)/C=C/c1ccc(O)cc1 | 25 (≈ 122 µM) | Ratio [2]: 0.125; Ratio [3]: 0.25; Ratio [4]: 0.062; Ratio [5]: 0.062 |
| COc1cc(/C=C/C(=O)CC(C)=O)ccc1OC(C)=O | > 100 | – |
| COc1cc(OC)c(/C=C/C(=O)CC(C)=O)c(OC)c1 | 100 (≈ 359 µM) | – |
| COc1cc(CCC(=O)CC(C)=O)cc(OC)c1O | 12.5 (≈ 46.9 µM) | – |
| COc1cc(/C=C/C(=O)CC(=O)/C=C/c2ccc(O)c(OC)c2)ccc1O [CURCUMIN] | > 100 | – |
| O=C(O)c1cn(C2CC2)c2cc(N3CCNCC3)c(F)cc2c1=O [CIPROFLOXACIN] | 3.12 (≈ 9.43 µM) | – |
| C=C/C(C)=C/[C@@]1(C)SC(=O)C(C)=C1O [THIOLACTOMYCIN] | 12.5 (≈ 59.4 µM) | – |
| CC(=O)CC(=O)CCc1ccc(O)c(O)c1 | 3.12 (≈ 14.1 µM) | – |
| CO[C@H]1/C=C/O[C@@]2(C)Oc3c(C)c(O)c4c(O)c(c(/C=N/N5CCN(C)CC5)c(O)c4c3C2=O)NC(=O)/C(C)=C\C=C\[C@H](C)[C@H](O)[C@@H](C)[C@@H](O)[C@@H](C)[C@H](OC(C)=O)[C@@H]1C [RIFAMPIN] | 1.6 (≈ 1.94 µM) | – |
| COc1cc(/C=C/C(=O)CC(C)=O)ccc1O | 25 (≈ 107 µM) | – |
| COc1ccc(CCC(=O)CC(C)=O)c(OC)c1OC | > 100 | – |
| NNC(=O)c1ccncc1 [ISONIAZID] | 0.8 (≈ 5.83 µM) | – |
| CC(=O)CC(=O)/C=C/c1ccc(O)c(O)c1 | 25 (≈ 114 µM) | – |
| COc1cc(/C=C/C(=O)CC(C)=O)cc(OC)c1OC | 50 (≈ 180 µM) | – |
| CC[C@@H](CO)NCCN[C@@H](CC)CO [ETHAMBUTOL] | 1.6 (≈ 7.83 µM) | – |
| COc1cc(/C=C/C(=O)CC(C)=O)cc(OC)c1O | 50 (≈ 189 µM) | – |
| COc1ccc(CCC(=O)CC(C)=O)cc1 | 25 (≈ 113 µM) | – |
| CC(=O)CC(=O)/C=C/c1ccc(OC(C)=O)cc1 | 100 (≈ 406 µM) | – |
| NC(=O)c1cnccn1 [PYRAZINAMIDE] | 3.12 (≈ 25.4 µM) | – |
| COc1ccc(/C=C/C(=O)CC(C)=O)cc1 | 50 (≈ 229 µM) | – |
| CN[C@@H]1[C@H](O[C@H]2[C@H](O[C@H]3[C@H](O)[C@@H](O)[C@H](N=C(N)N)[C@@H](O)[C@@H]3N=C(N)N)O[C@@H](C)[C@]2(O)C=O)O[C@@H](CO)[C@H](O)[C@H]1O [STREPTOMYCIN] | 6.25 (≈ 10.7 µM) | – |
| COc1ccc(/C=C/C(=O)CC(C)=O)c(OC)c1OC | 100 (≈ 359 µM) | – |
| COc1ccc(CCC(=O)CC(C)=O)cc1OC | 100 (≈ 400 µM) | – |
| CC(=O)CC(=O)CCc1ccc(O)cc1 | 1.6 (≈ 7.76 µM) | Ratio [2]: 0.25; Ratio [3]: 0.25; Ratio [4]: 0.031; Ratio [5]: 0.062 |
| COc1ccc(/C=C/C(=O)CC(C)=O)cc1OC | 100 (≈ 403 µM) | – |
| COc1cc(CCC(=O)CC(C)=O)cc(OC)c1OC(C)=O | 100 (≈ 324 µM) | – |
| COc1cc(CCC(=O)CC(C)=O)ccc1O | 6.25 (≈ 26.5 µM) | – |
